Experimental data: publication PMC9472360, “Adagrasib, a KRAS G12C inhibitor, reverses the multidrug resistance mediated by ABCB1 in vitro and in vivo” (Cell Communication and Signaling : CCS, 2022)

Target: T1, ABCB1 (P-glycoprotein/P-gp/MDR1) (Homo sapiens, UniProt P08183)
T1 construct: full-length ABCB1 overexpressed in High Five insect cells; crude membranes
Assay: vanadate-sensitive ATPase assay, inorganic phosphate release, ABCB1 membranes
Type: biochemical
Settings: High Five membranes 100 µg/mL, 12 mM Mg-ATP, 37 °C, 0.01-5 µM

T1 sequence (P08183 whole entry): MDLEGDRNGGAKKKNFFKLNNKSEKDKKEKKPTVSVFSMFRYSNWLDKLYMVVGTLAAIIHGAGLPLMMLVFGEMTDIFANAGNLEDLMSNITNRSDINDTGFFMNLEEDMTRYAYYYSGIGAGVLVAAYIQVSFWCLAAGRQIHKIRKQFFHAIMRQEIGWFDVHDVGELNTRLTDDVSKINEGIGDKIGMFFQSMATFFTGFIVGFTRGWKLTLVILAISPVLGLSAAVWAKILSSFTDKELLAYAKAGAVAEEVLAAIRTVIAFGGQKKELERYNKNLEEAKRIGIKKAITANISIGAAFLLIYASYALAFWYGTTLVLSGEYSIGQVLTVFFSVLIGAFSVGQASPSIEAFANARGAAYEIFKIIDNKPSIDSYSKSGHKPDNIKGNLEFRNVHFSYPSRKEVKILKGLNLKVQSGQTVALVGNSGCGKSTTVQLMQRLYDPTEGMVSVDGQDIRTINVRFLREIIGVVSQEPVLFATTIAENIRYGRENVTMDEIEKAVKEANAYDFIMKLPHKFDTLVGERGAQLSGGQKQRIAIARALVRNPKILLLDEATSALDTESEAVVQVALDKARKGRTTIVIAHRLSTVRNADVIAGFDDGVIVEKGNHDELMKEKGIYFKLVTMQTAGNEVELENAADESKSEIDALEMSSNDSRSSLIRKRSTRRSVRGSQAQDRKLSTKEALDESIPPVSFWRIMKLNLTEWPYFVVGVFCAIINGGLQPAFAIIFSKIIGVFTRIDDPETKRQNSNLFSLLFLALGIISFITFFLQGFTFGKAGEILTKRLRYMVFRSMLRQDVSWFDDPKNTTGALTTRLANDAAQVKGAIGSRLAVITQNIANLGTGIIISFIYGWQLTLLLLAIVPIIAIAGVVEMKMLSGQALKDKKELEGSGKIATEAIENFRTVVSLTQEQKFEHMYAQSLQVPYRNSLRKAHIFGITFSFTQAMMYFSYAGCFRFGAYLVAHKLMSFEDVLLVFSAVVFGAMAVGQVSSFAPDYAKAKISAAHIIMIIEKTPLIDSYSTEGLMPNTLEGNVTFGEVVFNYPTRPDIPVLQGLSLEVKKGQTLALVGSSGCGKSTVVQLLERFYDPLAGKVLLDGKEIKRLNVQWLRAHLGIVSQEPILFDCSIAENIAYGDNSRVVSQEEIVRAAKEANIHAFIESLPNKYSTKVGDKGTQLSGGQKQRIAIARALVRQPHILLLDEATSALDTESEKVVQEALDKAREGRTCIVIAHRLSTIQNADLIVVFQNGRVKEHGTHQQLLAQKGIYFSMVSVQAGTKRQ

**Q.** How did the ATPase stimulation turn out when `C=C(F)C(=O)N1CCN(c2nc(OC[C@@H]3CCCN3C)nc3c2CCN(c2cccc4cccc(Cl)c24)C3)C[C@@H]1CC#N` [MRTX849] was run?
**A.** Its ATPase stimulation is “MRTX849- stimulated activity of ABCB1 ATPase was dose-dependent”.
